Tests used:
Details in all cases: 72 h
Calu-3 [1] = experiment: relative viability EC50 (midpoint between 100% and the lowest measured viability); higher = less toxic
Vero E6 [2] = experiment: as above
HepG2 [3] = experiment: as above
Calu-3 [4] = experiment: cell viability relative to DMSO; higher = less toxic
Vero E6 [5] = experiment: as above
HepG2 [6] = experiment: as above
Calu-3 [7] = experiment: drug sensitivity score (DSS) for viability; higher = more toxic; extreme values may be limits of the assay
Vero E6 [8] = experiment: as above
HepG2 [9] = experiment: as above
U2OS [10] = experiment: relative viability EC50 (midpoint between 100% and the lowest measured viability); higher = less toxic
U2OS [11] = experiment: cell viability relative to DMSO; higher = less toxic
U2OS [12] = experiment: drug sensitivity score (DSS) for viability; higher = more toxic; extreme values may be limits of the assay
Caco-2 [13] = experiment: cell viability relative to DMSO; higher = less toxic
Caco-2 [14] = experiment: drug sensitivity score (DSS) for viability; higher = more toxic; extreme values may be limits of the assay
Caco-2 [15] = experiment: relative viability EC50 (midpoint between 100% and the lowest measured viability); higher = less toxic

Row | SMILES | relative viability EC50 (Calu-3 [1]) [µM] | relative viability EC50 (Vero E6 [2]) [µM] | relative viability EC50 (HepG2 [3]) [µM] | cell viability (Calu-3 [4]; 1 nM) [%] | cell viability (Calu-3 [4]; 10 nM) [%] | cell viability (Calu-3 [4]; 100 nM) [%] | cell viability (Calu-3 [4]; 1000 nM) [%] | cell viability (Calu-3 [4]; 10000 nM) [%] | cell viability (Vero E6 [5]; 1 nM) [%] | cell viability (Vero E6 [5]; 10 nM) [%] | cell viability (Vero E6 [5]; 100 nM) [%] | cell viability (Vero E6 [5]; 1000 nM) [%] | cell viability (Vero E6 [5]; 10000 nM) [%] | cell viability (HepG2 [6]; 1 nM) [%] | cell viability (HepG2 [6]; 10 nM) [%] | cell viability (HepG2 [6]; 100 nM) [%] | cell viability (HepG2 [6]; 1000 nM) [%] | cell viability (HepG2 [6]; 10000 nM) [%] | drug sensitivity score (Calu-3 [7]) | drug sensitivity score (Vero E6 [8]) | drug sensitivity score (HepG2 [9]) | relative viability EC50 (U2OS [10]) [µM] | cell viability (U2OS [11]; 1 nM) [%] | cell viability (U2OS [11]; 10 nM) [%] | cell viability (U2OS [11]; 100 nM) [%] | cell viability (U2OS [11]; 1000 nM) [%] | cell viability (U2OS [11]; 10000 nM) [%] | drug sensitivity score (U2OS [12]) | cell viability (Caco-2 [13]; 1 nM) [%] | cell viability (Caco-2 [13]; 10 nM) [%] | cell viability (Caco-2 [13]; 100 nM) [%] | cell viability (Caco-2 [13]; 1000 nM) [%] | cell viability (Caco-2 [13]; 10000 nM) [%] | drug sensitivity score (Caco-2 [14]) | relative viability EC50 (Caco-2 [15]) [µM]
1 | NCC1(CC(=O)O)CCCCC1 [gabapentin] | > 10 | > 10 | > 10 | 120 | 118 | 100 | 110 | 94.4 | 96 | 93.6 | 89.3 | 94.3 | 92.5 | 102 | 97.6 | 94.2 | 89.3 | 108 | 0 | 0 | 0 |  |  |  |  |  |  |  |  |  |  |  |  |  | 
2 | Cn1c(=O)c2[nH]cnc2n(C)c1=O [aminophylline] | > 10 | > 10 |  | 99.2 | 114 | 100 | 108 | 114 | 99.5 | 100 | 94.9 | 93.1 | 112 |  |  |  |  |  | 0 | 0 |  | > 10 | 99.1 | 98.9 | 94.9 | 101 | 103 | 0 |  |  |  |  |  |  | 
3 | C=C(C)[C@@H]1CC[C@]2(CO)CC[C@]3(C)[C@H](CC[C@@H]4[C@@]5(C)CC[C@H](O)C(C)(C)[C@@H]5CC[C@]43C)[C@@H]12 [NSC-4644] | > 10 | > 10 | > 10 | 103 | 103 | 102 | 106 | 90.3 | 84.1 | 95.4 | 96.3 | 92 | 106 | 112 | 99.1 | 96.1 | 81.2 | 89.8 | 0 | 0 | 2.9 | > 10 | 96.6 | 95.6 | 103 | 92 | 98.4 | 0 | 101 | 73.1 | 75.8 | 74.1 | 91.1 | 10.8 | 
4 | CNC(=O)[C@@H](NC(=O)[C@H](CC(C)C)[C@H](O)C(=O)NO)C(C)(C)C [marimastat] | > 10 | > 10 | > 10 | 96.2 | 102 | 86.4 | 87.4 | 81.3 | 108 | 103 | 100 | 104 | 90.7 | 103 | 99.7 | 121 | 106 | 113 | 3.6 | 0 | 0 | > 10 | 98.7 | 100 | 92.9 | 95.9 | 91.5 | 0 | 79.5 | 106 | 89.9 | 99.9 | 70.5 | 1.3 | 
5 | CCCCCCOc1ccccc1C(N)=O [exalamide] | > 10 | > 10 | > 10 | 106 | 115 | 107 | 98.3 | 113 | 110 | 105 | 102 | 105 | 86.9 | 110 | 96.1 | 95.9 | 109 | 90 | 0 | 0 | 0 | > 10 | 95.6 | 92.7 | 101 | 93.1 | 94.3 | 0 |  |  |  |  |  |  | 
6 | O=C(NOCCO)c1ccc2cncn2c1Nc1ccc(I)cc1F [GDC-0623] | 0.034 | 0.017 | 0.0088 | 102 | 78.5 | 52.4 | 36.4 | 31.1 | 98.4 | 81.9 | 55.5 | 49.9 | 49.3 | 91.8 | 51.2 | 23.7 | 19.6 | 12.4 | 19.7 | 16.8 | 31.7 | 0.916 | 95.1 | 92.6 | 93.4 | 62 | 25.5 | 8.6 | 93.5 | 79.5 | 64.6 | 61.8 | 58.2 | 13.8 | 
7 | C[C@@H]1COC(Nc2ccc3ncnc(Nc4ccc(OCc5nccs5)c(Cl)c4)c3c2)=N1 | 0.184 |  | > 10 | 103 | 107 | 81.8 | 41.3 | 36.1 | 107 | 99.5 | 94 | 70.7 | 67 | 100 | 100 | 94.8 | 92.3 | 98.8 | 13.2 | 5.6 | 0 | > 10 | 97.8 | 96.7 | 98.9 | 93.3 | 90 | 0 | 95.7 | 104 | 97.2 | 81.6 | 67.7 | 3.4 | 
8 | CC(C)=CCC[C@](C)(O)[C@H]1CC[C@]2(C)[C@@H]1[C@H](O)C[C@@H]1[C@@]3(C)CC[C@H](O)C(C)(C)[C@@H]3CC[C@]12C [S-111] | > 10 | > 10 |  | 95.5 | 95.4 | 89.1 | 97.2 | 93 | 104 | 102 | 98.3 | 105 | 100 |  |  |  |  |  | 0 | 0 |  |  |  |  |  |  |  |  | 106 | 98.3 | 103 | 104 | 99.8 | 0 | > 10
9 | CCCCCCCCCCCCCC(=O)OC(C)C [isopropyl-myristate] | > 10 | > 10 |  | 98.3 | 105 | 101 | 105 | 94.1 | 101 | 104 | 91.5 | 96.8 | 96.4 |  |  |  |  |  | 0 | 0 |  |  |  |  |  |  |  |  | 111 | 97 | 110 | 96.9 | 98.6 | 0 | > 10
10 | C[C@H](NC(=O)/C(C#N)=C/c1ccc(O)c(O)c1)c1ccccc1 [tyrphostin-AG-835] | > 10 | > 10 | > 10 | 89.4 | 96.8 | 109 | 97.2 | 98.2 | 98 | 90.4 | 98.5 | 89.6 | 89.6 | 109 | 90.9 | 106 | 97.3 | 78.9 | 0 | 0 | 1 | > 10 | 97.2 | 98.5 | 98.3 | 98.3 | 91 | 0 | 92.2 | 97.2 | 90.5 | 93.7 | 74.6 | 1.5 | 
11 | Cc1c(C)c2c(c(C)c1O)CCC(C)(C)O2 [APC-100] | > 10 | > 10 | > 10 | 96.6 | 95.1 | 100 | 104 | 100 | 93.5 | 85.4 | 99.1 | 88.1 | 102 | 120 | 88.6 | 120 | 95.7 | 99.2 | 0 | 0 | 0 | > 10 | 91.4 | 100 | 94.3 | 100 | 102 | 0 | 90.4 | 118 | 100 | 131 | 71.8 | 0.6 | 
12 | O=[N+]([O-])c1cncn1CCN1CCOCC1 [nimorazole] | > 10 |  | > 10 | 102 | 105 | 94.6 | 108 | 93.9 |  |  |  |  |  | 118 | 112 | 97.2 | 98.7 | 117 | 0 |  | 0 |  |  |  |  |  |  |  | 102 | 107 | 94.8 | 106 | 96.3 | 0 | > 10
13 | CC[C@@H]([C@H](C)O)n1ncn(-c2ccc(N3CCN(c4ccc(OC[C@@H]5CO[C@@](Cn6cncn6)(c6ccc(F)cc6F)C5)cc4)CC3)cc2)c1=O [posaconazole] | > 10 | 2.13 | 2.81 | 106 | 103 | 91.5 | 92.9 | 93 | 98.8 | 106 | 93.4 | 92.8 | 43.2 | 97.8 | 86.9 | 105 | 96.6 | 27.5 | 0 | 4.3 | 4.5 | > 10 | 92.9 | 101 | 93.7 | 90 | 93.8 | 0 | 97.6 | 99 | 94.3 | 86.7 | 70.2 | 2.4 | 
14 | CCOc1cc(N2CCC(O)CC2)ccc1Nc1ncc2c(n1)N(C)c1ccccc1C(=O)N2C [XMD8-92] | > 10 | 2.26 |  | 90.2 | 112 | 98.1 | 109 | 77.5 | 99.7 | 93.2 | 99.7 | 93.5 | 41.2 | 101 | 99.4 | 102 | 104 | 74.4 | 0.5 | 4.3 | 0.8 |  | 92.7 | 105 | 93.6 | 94.6 | 73.3 | 1.8 | 96.1 | 93 | 90 | 89.8 | 84.6 | 0.9 | > 10
15 | O=C(C=Cc1ccccc1)NC(NC(=S)Nc1ccc(Cl)cc1)C(Cl)(Cl)Cl (configuration not stated) [sal003] | > 10 | > 10 | 3.08 | 106 | 99.8 | 95.1 | 108 | 95.6 | 94.9 | 102 | 100 | 100 | 81.2 | 104 | 102 | 96.2 | 99 | 19.1 | 0 | 0.5 | 4.6 | > 10 | 98.8 | 94.6 | 98.2 | 93.7 | 91.5 | 0 | 97.6 | 96 | 101 | 91.1 | 74.1 | 2.2 | 

Source: the supplement of paper PMC13380429
